From ChEMBL document CHEMBL6071133, “Discovery of novel penetrating peptides able to target human leukemia and lymphoma for enhanced PROTAC delivery” (Eur J Med Chem, 2024)
Calls of active or inactive are those of the source. The calls are words filed in the database; no cut-off is given here.

Tests used:
[1] = Drug uptake in human K562 cells assessed as membrane penetration by measuring increase in fluorescence intensity at 5 umol/L incubated for 2 hrs by flow cytometry relative to C9C; assay type: ADME, cell-based; details: k562, 2 h, 5 µM, dose 5 µmol/L
[2] = Drug uptake in human KU812 cells assessed as membrane permeability by measuring increase in fluorescence intensity at 5 umol/L incubated for 2 hrs by flow cytometry relative to THP-1 cells; assay type: ADME, cell-based; details: ku812, 2 h, 5 µM, dose 5 µmol/L
[3] = Drug uptake in human CCRF-CEM cells assessed as perinuclear distribution and colocalization with nucleus at 10 umol/L incubated for 2 hrs by confocal laser microscopy; assay type: ADME, cell-based; details: 10 µM, dose 10 µmol/L
[4] = Drug uptake in human KU812 cells assessed as perinuclear distribution and colocalization with nucleus at 10 umol/L incubated for 2 hrs by confocal laser microscopy; assay type: ADME, cell-based; details: ku812, 2 h, 10 µM, dose 10 µmol/L
[5] = Drug uptake in human K562 cells assessed as increase in fluorescence intensity at 1 to 10 umol/L incubated for 2 hrs by cell imaging based fluorescence microscopic analysis; assay type: ADME; details: k562, 2 h, dose 1-10 µmol/L
[6] = Drug uptake in human K562 cells assessed as increase in fluorescence intensity at 5 umol/L measured for 5 to 240 mins by flow cytometry; assay type: ADME, cell-based; details: k562, 5 µM, TDE = time-dependent effect, time 5-240 min, dose 5 µmol/L
[7] = Increase in membrane permeation of IMA-PROTAC in human K562 cells assessed as increase in intracellular content of IMA-PROTAC incubated for 3 hrs by HPLC-MRM-MS analysis relative to control; assay type: functional
[8] = Drug uptake in human K562 cells assessed as fluorescence intensity at 5 umol/L pretreated with endocytosis inhibitor, chloroquine for 0.5 hrs followed by incubation with compound for 2 hrs by FACS analysis; assay type: ADME, cell-based; details: k562, 2 h, 5 µM, dose 5 µmol/L
[9] = Stability of the compound in fetal bovine serum assessed as parent compound remaining measured after 12 hrs by HPLC-MS analysis; assay type: ADME, cell-free, Bos taurus; details: cattle, read-out: Stability
K562 [10] = test: Potentiation of IMA-PROTAC-induced cytotoxicity against human K562 cells assessed as inhibition of cell growth at compound: IMA-PROTAC concentration ratio of 5:1 incubated for 48 hrs in presence of 10 to 30 umo/L IMA-PROTAC by MTT assay relative to IMA-PROTAC; assay type: functional
[11] = Drug uptake in human K562 cells assessed as increase in fluorescence intensity at 1 to 10 uM incubated for 2 hrs by flow cytometry; assay type: ADME, cell-based; details: k562, 2 h, dose 1-10 µM
K562 [12] = test: Induction of apoptosis in human K562 cells assessed as viable cells at PROTAC to compound concentration ratio of 1:5 incubated for 48 hrs in presence of 3 umol/L IMA-PROTAC by AnnexinV-FITC/PI staining based flow cytometry (reference value: 99.85%); assay type: functional
[13] = Interaction with IMA-PROTAC assessed as induction of formation of micelle cluster with uniform and distinct spherical morphology by transmission electron microscopy; assay type: physicochemical
[14] = Drug uptake in human K562 cells assessed as perinuclear distribution and colocalization with nucleus at 10 umol/L incubated for 2 hrs by confocal laser microscopy; assay type: ADME, cell-based; details: k562, 2 h, 10 µM, dose 10 µmol/L
[15] = Drug uptake in human KU812 cells assessed as increase in fluorescence intensity at 1 to 10 uM incubated for 2 hrs by flow cytometry; assay type: ADME, cell-based; details: ku812, 2 h, dose 1-10 µM
[16] = Drug uptake in human K562 cells assessed as increase in fluorescence intensity at 5 umol/L pretreated with endocytosis inhibitor, nystatin for 0.5 hrs followed by incubation with compound for 2 hrs by FACS analysis; assay type: ADME, cell-based; details: k562, 2 h, 5 µM, dose 5 µmol/L
[17] = Drug uptake in human K562 cells assessed as fluorescence intensity at 5 umol/L pretreated with endocytosis inhibitor, chlorpromazine for 0.5 hrs followed by incubation with compound for 2 hrs by FACS analysis; assay type: ADME, cell-based; details: k562, 2 h, 5 µM, dose 5 µmol/L
[18] = Drug uptake in human CCRF-CEM cells assessed as increase in fluorescence intensity at 1 to 10 umol/L incubated for 2 hrs by cell imaging based fluorescence microscopic analysis; assay type: ADME; details: dose 1-10 µmol/L
[19] = Drug uptake in human CCRF-CEM cells assessed as increase in fluorescence intensity at 5 umol/L measured for 5 to 240 mins by flow cytometry; assay type: ADME, cell-based; details: 5 µM, TDE = time-dependent effect, time 5-240 min, dose 5 µmol/L
[20] = Cytotoxicity against human K562 cells assessed as cell viability at 0.01 to 100 uM incubated for 48 hrs by MTT assay; assay type: toxicity, cell-based; details: dose 0.01-100 µM, read-out: Activity
K562 [21] = test: Induction of apoptosis in human K562 cells assessed as necrotic cells at PROTAC to compound concentration ratio of 1:5 incubated for 48 hrs in presence of 3 umol/L IMA-PROTAC by AnnexinV-FITC/PI staining based flow cytometry (reference value: 0.1%); assay type: functional
[22] = Cytotoxicity against human CCRF-CEM cells assessed as cell viability at 0.01 to 100 uM incubated for 48 hrs by MTT assay; assay type: toxicity, cell-based; details: dose 0.01-100 µM, read-out: Activity
[23] = Stability of the compound in fetal bovine serum assessed as parent compound remaining measured after 8 hrs by HPLC-MS analysis; assay type: ADME, cell-free, Bos taurus; details: cattle, read-out: Stability
K562 [24] = test: Increase in membrane permeability of IMA-PROTAC in human K562 cells assessed as potentiation of IMA-PROTAC-induced Bcr-Abl degradation at PROTAC to compound concentration ratio of 1:3 incubated for 48 hrs in presence of 3 umol/L IMA-PROTAC by western blot analysis; assay type: functional, cell-based
K562 [25] = test: Induction of apoptosis in human K562 cells assessed as early apoptotic cells at PROTAC to compound concentration ratio of 1:5 incubated for 48 hrs in presence of 3 umol/L IMA-PROTAC by AnnexinV-FITC/PI staining based flow cytometry (reference value: 0.03%); assay type: functional
K562 [26] = test: Increase in membrane permeability of IMA-PROTAC in human K562 cells assessed as potentiation of IMA-PROTAC-induced inhibition of STAT5 phosphorylation at PROTAC to compound concentration ratio of 1:3 incubated for 48 hrs in presence of 3 umol/L IMA-PROTAC by western blot analysis; assay type: functional, cell-based
K562 [27] = test: Induction of apoptosis in human K562 cells assessed as late apoptotic cells at PROTAC to compound concentration ratio of 1:5 incubated for 48 hrs in presence of 3 umol/L IMA-PROTAC by AnnexinV-FITC/PI staining based flow cytometry (reference value: 0.01%); assay type: functional
[28] = Cytotoxicity against human KU812 cells assessed as cell viability at 0.01 to 100 uM incubated for 48 hrs by MTT assay; assay type: toxicity, cell-based; details: dose 0.01-100 µM, read-out: Activity
[29] = Drug uptake in human KU812 cells assessed as membrane penetration by measuring increase in fluorescence intensity at 5 umol/L incubated for 2 hrs by flow cytometry relative to C9C; assay type: ADME, cell-based; details: ku812, 2 h, 5 µM, dose 5 µmol/L
[30] = Drug uptake in human K562 cells assessed as fluorescence intensity at 5 umol/L pretreated with endocytosis inhibitor, methyl-beta-cyclodextrin for 0.5 hrs followed by incubation with compound for 2 hrs by FACS analysis; assay type: ADME, cell-based; details: k562, 2 h, 5 µM, dose 5 µmol/L
[31] = Drug uptake in human CCRF-CEM cells assessed as increase in fluorescence intensity at 1 to 10 uM incubated for 2 hrs by flow cytometry; assay type: ADME, cell-based; details: dose 1-10 µM

fold change (FC) [1]: 4.03
fold change (FC) [2]: 4
Drug uptake [3]: Active
Drug uptake [4]: Active
Drug uptake [5]: Active
Drug uptake [6]: Tde
Drug uptake [8]: Not Active
remaining at 12 h [9]: 80%
Drug uptake [11]: Dose-Dependent Effect
Activity [13]: Not Active
Drug uptake [14]: Active
Drug uptake [15]: Dose-Dependent Effect
Drug uptake [16]: Active
Drug uptake [17]: Not Active
Drug uptake [18]: Active
Drug uptake [19]: Tde
remaining at 8 h [23]: 100%
fold change (FC) [29]: 4.45
Drug uptake [30]: Not Active
Drug uptake [31]: Dose-Dependent Effect
SMILES: CC(C)C[C@H](NC(=O)[C@H](Cc1csc2ccccc12)NC(=O)[C@@H](Cc1ccccc1)NC(=O)[C@H](Cc1ccccc1)NC(=O)CNC(=O)[C@@H](N)CS)C(=O)N[C@@H](CCCNC(=N)N)C(=O)N[C@@H](CO)C(=O)N[C@@H](CS)C(=O)O
fold change (FC) [7]: 1.72
inhibition (INH) (K562 [10]): 20%
Activity (K562 [12]): 63.19%
viability at 48 h, up to 100 µM [20]: > 75%
Activity (K562 [21]): 0%
viability at 48 h, up to 100 µM [22]: > 75%
Activity (K562 [24]): Active
Activity (K562 [25]): 22.82%
Activity (K562 [26]): Active
Activity (K562 [27]): 13.98%
viability at 48 h, up to 100 µM [28]: > 75%
